This test addresses T1, rat mGluR5 receptor (Rattus norvegicus, UniProt P31424).
T1 construct: expressed in transfected cells; host or cells: HEK-293
The experiment in a line: [3H]-MPEP displacement binding assay, HEK-293 cell membranes expressing rat mGluR5. The settings on record: for Ki: read-out: Median Ki; for IC50: no Ki given, read-out: IC50 (printed in the Median Ki column instead of a Ki). The method in brief:
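Membranes from HEK-293 cells expressing rat mGluR5 (12-25 μg protein), incubated 60 min at room temperature with 4 nM [3H]-MPEP in 50 mM Tris pH 7.5, then filtered. Nonspecific binding defined with 10 μM MPEP.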

Setting [1] is: 1 h, single point, @ 10 μm compound, Table 1A, read-out: PCT INHIB (%) @ 10 μm.
[2] abbreviates: [3H]-MPEP displacement, rat mGluR5.
Setting [3] is: [3H]-MPEP displacement, rat mGluR5 membranes.
[4] abbreviates: @ 10 μM compound, Biological Activity, Table 2A, read-out: PCT INHIB (%) @ 10 μM.
[5] abbreviates: single point, @ 10 μM compound, Table 3A, read-out: PCT INHIB (%) @ 10 μM.

Like-named read-outs stand apart in the source and are kept apart here. Bounds are passed on as bounds.

T1 sequence (P31424 21-1203): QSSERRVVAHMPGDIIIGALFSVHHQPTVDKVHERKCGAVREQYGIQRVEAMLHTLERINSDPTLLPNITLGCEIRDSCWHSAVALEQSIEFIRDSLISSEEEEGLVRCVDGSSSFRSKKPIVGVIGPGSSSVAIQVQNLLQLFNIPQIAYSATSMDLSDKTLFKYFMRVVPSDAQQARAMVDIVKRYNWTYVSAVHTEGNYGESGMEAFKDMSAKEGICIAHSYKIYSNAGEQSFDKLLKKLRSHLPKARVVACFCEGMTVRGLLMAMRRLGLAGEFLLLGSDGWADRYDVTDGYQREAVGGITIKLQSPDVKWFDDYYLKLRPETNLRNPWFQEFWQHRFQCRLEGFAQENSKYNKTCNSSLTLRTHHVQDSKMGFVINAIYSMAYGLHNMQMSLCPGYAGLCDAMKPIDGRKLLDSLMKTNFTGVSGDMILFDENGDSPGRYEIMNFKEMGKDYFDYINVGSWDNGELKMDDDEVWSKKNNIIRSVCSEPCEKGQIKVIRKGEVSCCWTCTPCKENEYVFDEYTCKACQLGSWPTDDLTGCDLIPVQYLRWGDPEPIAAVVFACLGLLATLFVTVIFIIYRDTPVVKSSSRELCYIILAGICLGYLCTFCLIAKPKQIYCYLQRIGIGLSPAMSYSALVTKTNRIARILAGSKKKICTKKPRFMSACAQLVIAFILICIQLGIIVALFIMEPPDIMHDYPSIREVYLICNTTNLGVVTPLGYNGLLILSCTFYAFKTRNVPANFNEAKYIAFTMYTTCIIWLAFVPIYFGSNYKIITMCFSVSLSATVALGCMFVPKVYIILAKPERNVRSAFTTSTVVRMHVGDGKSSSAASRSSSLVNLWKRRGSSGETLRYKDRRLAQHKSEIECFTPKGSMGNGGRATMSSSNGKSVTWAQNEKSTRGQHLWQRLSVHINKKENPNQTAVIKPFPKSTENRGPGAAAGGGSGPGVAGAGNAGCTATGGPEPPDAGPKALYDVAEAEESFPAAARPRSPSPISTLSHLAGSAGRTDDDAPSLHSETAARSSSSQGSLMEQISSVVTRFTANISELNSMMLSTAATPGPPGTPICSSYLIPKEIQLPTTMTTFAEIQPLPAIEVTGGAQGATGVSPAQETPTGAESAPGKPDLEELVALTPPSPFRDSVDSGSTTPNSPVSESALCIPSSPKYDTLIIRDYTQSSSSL

As a reminder, the Ki is a dissociation constant, usually derived from enzyme kinetics or from competition with a known ligand. `Cc1ccc(C)c(C#Cc2cc(C(=O)N3CCN(c4ccccn4)CC3)ccc2C)c1` [Compound 30, 1-{3-[(2,5-dimethylphenyl)ethynyl]-4-methylbenzoyl}-4-pyridin-2-ylpiperazine]: the inhibition constant Ki was 3.81 µM. The inhibition at 10 µM under setting [1] came out at 55%. Turning to `COc1cccc(C#Cc2cccc(S(=O)(=O)N3CCN(c4ccccn4)CC3)c2)c1` [Compound 175, 1-({3-[(3-methoxyphenyl)ethynyl]phenyl}sulfonyl)-4-pyridin-2-ylpiperazine], the inhibition at 10 µM (single point, @ 10 μM compound, Table 5, read-out: PCT INHIB (%) @ 10 μM) was 0%. With `Cc1ccc(C(=O)N2CCN(c3ncc(Cl)cc3Cl)CC2)cc1C#Cc1ccccn1` [Compound 310, 1-(3,5-dichloropyridin-2-yl)-4-[4-methyl-3-(pyridin-2-ylethynyl)benzoyl]piperazine], the Ki under setting [2] came out at 0.745 µM. `COc1ccc(C(=O)N2CCN(c3ccccn3)CC2)cc1/C=C/c1ccccc1` [Compound 182, 1-{4-methoxy-3-[(E)-2-phenylvinyl]benzoyl}-4-pyridin-2-ylpiperazine]: the inhibitory constant (Ki) ([3H]-MPEP 4 nM, Table 7A) is 0.827 µM. Also, where the note is “single point, @ 10 μM compound, Table 7A, read-out: PCT INHIB (%) @ 10 μM”, the inhibition at 10 µM was determined as 86%. On to “1-(4-methylpyridin-2-yl)-4-{[3-(pyridin-2-ylethynyl)-4-(trifluoromethyl)phenyl]carbonyl}piperazine [Compound 367]”, for which the Ki under setting [3] is 0.008 µM. Turning to `COc1ccc(C(=O)N2CCN(Cc3ccc(Cl)c(Cl)c3)CC2)cc1C#Cc1ccccn1` [Compound 288, 1-(3,4-dichlorobenzyl)-4-[4-methoxy-3-(pyridin-2-ylethynyl)benzoyl]piperazine], under setting [2], the Ki amounted to 0.17 µM.

Usually IC50 stands for the concentration at which inhibition is half-maximal. On to `COc1ccc(C(=O)N2CCN(c3ncccc3Cl)CC2)cc1C#Cc1ccc(OCc2ccccc2)cc1` [Compound 346, 1-(3-{[4-(benzyloxy)phenyl]ethynyl}-4-methoxybenzoyl)-4-(3-chloropyridin-2-yl)piperazine], for which, under setting [2], the IC50 was above 10 µM. As for `COc1ccc(C(=O)N2CCN(S(=O)(=O)Cc3ccccc3)CC2)cc1C#Cc1ccccn1` [Compound 234, 1-(benzylsulfonyl)-4-[4-methoxy-3-(pyridin-2-ylethynyl)benzoyl]piperazine], the half-maximal inhibitory concentration (IC50) under setting [2] is above 10 µM. Consider `Cc1cccc(C#Cc2cc(C(=O)N3CCN(c4ccccn4)CC3)ccc2C)c1` [Compound 39, 1-{4-methyl-3-[(3-methylphenyl)ethynyl]benzoyl}-4-pyridin-2-ylpiperazine], for which the Ki came to 0.0571 µM. For the same compound, the inhibition at 10 µM under setting [1] was 83%. For the compound `COc1cccc(C#Cc2cc(C(=O)N3CCN(c4ccccn4)CC3)ccc2C)c1` [Compound 26, 1-{3-[(3-methoxyphenyl)ethynyl]-4-methylbenzoyl}-4-pyridin-2-ylpiperazine], the Ki amounted to 0.322 µM. The inhibition at 10 µM under setting [1] was determined as 86%. In the case of `COc1ccc(C(=O)N2CCN(c3ncccc3Cl)CC2)cc1C#Cc1ccccc1` [Compound 341, 1-(3-chloropyridin-2-yl)-4-[4-methoxy-3-(phenylethynyl)benzoyl]piperazine], under setting [2], the Ki worked out at 1.13 µM.

Turning to `O=C(c1ccc(Cl)c(C#Cc2ccccn2)c1)N1CCN(c2cccc(C(F)(F)F)c2)CC1` [Compound 392, 1-[4-chloro-3-(pyridin-2-ylethynyl)benzoyl]-4-[3-(trifluoromethyl)phenyl]piperazine], the Ki under setting [3] stood at 0.12 µM. Take `COc1ccc(N2CCN(C(=O)c3cccc(C#Cc4ccccc4)c3)CC2)cc1` [Compound 71, 1-(4-methoxyphenyl)-4-[3-(phenylethynyl)benzoyl]piperazine]: under setting [4], the inhibition at 10 µM was 40%. On to `O=C(c1ccc(C(F)(F)F)c(C#Cc2ccccn2)c1)N1CCN(c2ccc(C(F)(F)F)cn2)CC1` [Compound 379, 1-{[3-(pyridin-2-ylethynyl)-4-(trifluoromethyl)phenyl]carbonyl}-4-[5-(trifluoromethyl)pyridin-2-yl]piperazine], for which the inhibitory constant (Ki) under setting [3] is 3.13 µM. In the case of `COc1ccc(C(=O)N2CCN(c3ccccn3)CC2)cc1C#Cc1cccc(C(F)(F)F)c1` [Compound 43, 1-(4-methoxy-3-{[3-(trifluoromethyl)phenyl]ethynyl}benzoyl)-4-pyridin-2-ylpiperazine], the Ki is 0.278 µM. Besides, the inhibition at 10 µM under setting [1] was found to be 82%. With `COc1ccc(C(=O)N2CCN(S(=O)(=O)c3ccccc3)CC2)cc1C#Cc1ccccn1` [Compound 224, 1-[4-methoxy-3-(pyridin-2-ylethynyl)benzoyl]-4-(phenylsulfonyl)piperazine], the Ki under setting [2] turned out to be 0.115 µM. Turning to `COc1ccc(C(=O)N2CCN(c3cnccn3)CC2)cc1C#Cc1cccc(Cl)c1` [Compound 65, 2-(4-{3-[(3-chlorophenyl)ethynyl]-4-methoxybenzoyl}piperazin-1-yl)pyrazine], the inhibition constant Ki amounted to 0.00211 µM. As to “1-(3-chlorobenzyl)-4-[4-methoxy-3-(pyridin-2-ylethynyl)benzoyl]piperazin-2-one [Compound 333]”, the Ki under setting [2] was 0.034 µM. `COc1ccc(C(=O)N2CCN(c3cnccn3)CC2)cc1C#Cc1ccccn1` [Compound 66, 2-{4-[4-methoxy-3-(pyridin-2-ylethynyl)benzoyl]piperazin-1-yl}pyrazine]: the inhibitory constant (Ki) turned out to be 0.0212 µM. In the case of `COc1ccc(C(=O)N2CCN(C(=O)c3ccccc3OC)CC2)cc1C#Cc1ccccn1` [Compound 263, 1-(2-methoxybenzoyl)-4-[4-methoxy-3-(pyridin-2-ylethynyl)benzoyl]piperazine], under setting [2], the Ki was 0.169 µM. On to `COc1ccc(C(=O)N2CCN(S(=O)(=O)c3cccc4c(N(C)C)cccc34)CC2)cc1C#Cc1ccccn1` [Compound 273, 5-({4-[4-methoxy-3-(pyridin-2-ylethynyl)benzoyl]piperazin-1-yl}sulfonyl)-N,N-dimethylnaphthalen-1-amine], for which, under setting [2], the inhibitory constant (Ki) came to 1.74 µM. As to `COc1ccc(C(=O)N2CCN(c3cc(Cl)cc(Cl)c3)CC2)cc1C#Cc1ccccn1` [Compound 271, 1-(3,5-dichlorophenyl)-4-[4-methoxy-3-(pyridin-2-ylethynyl)benzoyl]piperazine], the Ki under setting [2] amounted to 0.018 µM. Take `O=C(c1cccc(OCc2cccc(F)c2)c1)N1CCN(c2ccccn2)CC1` [Compound 157, 1-{3-[(3-fluorobenzyl)oxy]benzoyl}-4-pyridin-2-ylpiperazine]: under setting [5], the inhibition at 10 µM was 18%. For the compound `COc1ccc(C(=O)N2CCN(c3ccccn3)CC2)cc1OCc1cccc(C)c1` [Compound 151, 1-{4-methoxy-3-[(3-methylbenzyl)oxy]benzoyl}-4-pyridin-2-ylpiperazine], the inhibition at 10 µM under setting [5] amounted to 0%. For `COc1ccc(C(=O)N2CCN(c3ccccn3)CC2)cc1C#Cc1cccc(Cl)c1` [Compound 19, 1-{3-[(3-chlorophenyl)ethynyl]-4-methoxybenzoyl}-4-pyridin-2-ylpiperazine], the Ki turned out to be 0.006 µM. Under setting [1], the inhibition at 10 µM worked out at 97%. With `COc1ccc(C(=O)N2CCCN(c3ncccc3C#N)CC2)cc1C#Cc1ccccn1` [Compound 214, 2-{4-[4-methoxy-3-(pyridin-2-ylethynyl)benzoyl]-1,4-diazepan-1-yl}nicotinonitrile], under setting [2], the Ki turned out to be 0.458 µM. On to `N#Cc1ccc(N2CCN(C(=O)c3cncc(C#Cc4ccccc4)c3)CC2)nc1` [Compound 131, 6-(4-{[5-(phenylethynyl)pyridin-3-yl]carbonyl}piperazin-1-yl)nicotinonitrile], for which, under setting [4], the inhibition at 10 µM stood at 0%. Consider `COc1ccc(C(=O)N2CCN(c3cnccn3)CC2)cc1C#Cc1cccc(C)c1` [Compound 53, 2-(4-{4-methoxy-3-[(3-methylphenyl)ethynyl]benzoyl}piperazin-1-yl)pyrazine], for which the Ki was found to be 0.00863 µM. Under setting [1], the inhibition at 10 µM is 95%. On to `O=C(c1cncc(C#Cc2ccccc2)c1)N1CCN(c2ncccc2C(F)(F)F)CC1` [Compound 134, 1-{[5-(phenylethynyl)pyridin-3-yl]carbonyl}-4-[3-(trifluoromethyl)pyridin-2-yl]piperazine], for which, under setting [4], the inhibition at 10 µM worked out at 0%. `O=C(c1cccc(C#Cc2ccccc2)c1)N1CCN(c2ccc([N+](=O)[O-])cc2)CC1` [Compound 75, 1-(4-nitrophenyl)-4-[3-(phenylethynyl)benzoyl]piperazine]: under setting [4], the inhibition at 10 µM was 20%. In the case of `COc1ccc(C(=O)N2CCN(c3ccc(S(C)(=O)=O)cc3)CC2)cc1C#Cc1ccccn1` [Compound 238, 1-[4-methoxy-3-(pyridin-2-ylethynyl)benzoyl]-4-[4-(methylsulfonyl)phenyl]piperazine], the Ki under setting [2] was 0.521 µM. As to `COc1ccc(C(=O)N2CCN(c3ccccn3)CC2)cc1C#Cc1cccc(F)c1` [Compound 63, 1-{3-[(3-fluorophenyl)ethynyl]-4-methoxybenzoyl}-4-pyridin-2-ylpiperazine], the Ki was determined as 0.00734 µM. Take `N#Cc1ccc(N2CCN(C(=O)c3ccnc(C#Cc4ccccc4)c3)CC2)nc1` [Compound 122, 6-{4-[2-(phenylethynyl)isonicotinoyl]piperazin-1-yl}nicotinonitrile]: the inhibition at 10 µM under setting [4] amounted to 0%. For `N#Cc1cccnc1N1CCN(C(=O)c2cccc(C#Cc3ccccn3)c2)CC1` [Compound 148], under setting [4], the inhibition at 10 µM came to 74%. The Ki (Biological Activity, Table 2A) was determined as 1.63 µM. Consider `Cc1ccnc(N2CCN(C(=O)c3ccnc(C#Cc4ccccc4)c3)CC2)c1` [Compound 124, 1-(4-methylpyridin-2-yl)-4-[2-(phenylethynyl)isonicotinoyl]piperazine], for which, under setting [4], the inhibition at 10 µM stood at 84%. Also, the Ki (Biological Activity, Table 2A) was 0.338 µM.

Turning to `COc1cc(C#Cc2cc(C(=O)N3CCN(c4ccccn4)CC3)ccc2OC)cc(OC)c1` [Compound 20, 1-{3-[(3,5-dimethoxyphenyl)ethynyl]-4-methoxybenzoyl}-4-pyridin-2-ylpiperazine], the inhibition at 10 µM under setting [1] is 0%.

For the origin of these results see patent US20090325964A1, “Piperazine Metabotropic Glutamate Receptor 5 (MGLUR5) Negative Allosteric Modulators For Anxiety/Depression” (Wyeth, priority 2008, published 2009).
